Laboratory results from the supplement of paper PMC11208160.

Experiment: recombinant UMI read abundance after kanamycin selection (control-corrected) (log10(CPM+1)); higher = more efficient recombination; extreme values may be limits of the assay; sequences stand for … in AGTGCAGAGAAAATCGGCCAGTTTTCTCTGCCTGCAGTCCGCATGCCGTGGGACCCCTTGGGTTCTAACCTGTTGCCTAGATTTATGCAGCGGACTGCCTTTCTCCCAAAGTGATAAACCGG…AGGTTGGTTTCACT; site = the 11-nt donor
In short: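 The measure is log10(CPM+1) for recombinant UMIs. These were PCR-amplified across the donor–target junction and sequenced after Escherichia coli carrying a donor and donor-binding-loop pair library and a target plasmid with T7-inducible IS621 bridge recombinase was plated on IPTG (0.07 mM) plus kanamycin or unselected. CPM were averaged over two replicates and scaled by control-derived factors.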
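Also: IS621 bridge recombinase in Escherichia coli cells against a fixed T5 target plasmid.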

Row | Sequence | recombinant UMI read abundance (log10)
1 | ATTGTTCCATGGACCGGTTTTCCCGGTAATCCGTATTTGGT (site CTTGTTCCTAC) | 0
2 | ATTGTTCCATGGACCGGTTTTCCCGGTAATCCGTATTTGGT (site GTTGTTCCTAC) | 0.00837
3 | ATTGTTCCATGGACCGGTTTTCCCGGTAATCCGTATTTGGT (site TTTGTTCCTAC) | 0.331
4 | ATTTACACATGGACCGGTTTTCCCGGTAATCCGTATTTGTT (site ATTTACACTAA) | 0.967
5 | ATTTATGCATGGACCGGTTTTCCCGGTAATCCGTATTTGGA (site AATTATGCTTC) | 0.379
6 | ATTTATGCATGGACCGGTTTTCCCGGTAATCCGTATTTGGA (site ACTTATGCTTC) | 1.06
7 | ATTTATGCATGGACCGGTTTTCCCGGTAATCCGTATTTGGA (site AGTTATGCTTC) | 0.744
8 | ATTTATGCATGGACCGGTTTTCCCGGTAATCCGTATTTGGA (site ATTTATGCTTC) | 0.0921
9 | CAAAACACATGGACCGGTTTTCCCGGTAATCCGTATTTGCC (site CAAAACACTGG) | 0
10 | CAAACATCATGGACCGGTTTTCCCGGTAATCCGTATTTGTA (site CAAACATCTTA) | 2.53
11 | CAAATCACATGGACCGGTTTTCCCGGTAATCCGTATTTGGG (site CAAATCACTCC) | 0.288
12 | CAAATCACATGGACCGGTTTTCCCGGTAATCCGTATTTGGG (site CAACTCACTCC) | 0.02
13 | CAAATCACATGGACCGGTTTTCCCGGTAATCCGTATTTGGG (site CAAGTCACTCC) | 0.00775
14 | CAAATCACATGGACCGGTTTTCCCGGTAATCCGTATTTGGG (site CAATTCACTCC) | 0.0243
15 | CAACATTCATGGACCGGTTTTCCCGGTAATCCGTATTTGCA (site CAACATTCTTG) | 2.5
16 | CAACCCGCATGGACCGGTTTTCCCGGTAATCCGTATTTGTT (site CAACCCGCTAA) | 1.49
17 | CAACTCACATGGACCGGTTTTCCCGGTAATCCGTATTTGGG (site CAAATCACTCC) | 0.0187
18 | CAACTCACATGGACCGGTTTTCCCGGTAATCCGTATTTGGG (site CAACTCACTCC) | 0.0233
19 | CAACTCACATGGACCGGTTTTCCCGGTAATCCGTATTTGGG (site CAAGTCACTCC) | 0.00719
20 | CAACTCACATGGACCGGTTTTCCCGGTAATCCGTATTTGGG (site CAATTCACTCC) | 0.013
21 | CAACTGACATGGACCGGTTTTCCCGGTAATCCGTATTTGCT (site CAACTGACTAG) | 2.48
22 | CAAGAGACATGGACCGGTTTTCCCGGTAATCCGTATTTGCG (site CAAGAGACTCG) | 3.11
23 | CAAGAGCCATGGACCGGTTTTCCCGGTAATCCGTATTTGGG (site CAAGAGCCTCC) | 0.00368
24 | CAAGCAGCATGGACCGGTTTTCCCGGTAATCCGTATTTGAT (site CAAGCAGCTAA) | 0.982
25 | CAAGCAGCATGGACCGGTTTTCCCGGTAATCCGTATTTGAT (site CAAGCAGCTAC) | 0.271

Row | Sequence | recombinant UMI read abundance (log10)
26 | CAAGCAGCATGGACCGGTTTTCCCGGTAATCCGTATTTGAT (site CAAGCAGCTAG) | 0.784
27 | CAAGCAGCATGGACCGGTTTTCCCGGTAATCCGTATTTGAT (site CAAGCAGCTAT) | 2.44
28 | CAAGCAGCATGGACCGGTTTTCCCGGTAATCCGTATTTGCG (site CAAGCAGCTAG) | 1.9
29 | CAAGCAGCATGGACCGGTTTTCCCGGTAATCCGTATTTGCG (site CAAGCAGCTCG) | 1.81
30 | CAAGCAGCATGGACCGGTTTTCCCGGTAATCCGTATTTGCG (site CAAGCAGCTGG) | 0
31 | CAAGCAGCATGGACCGGTTTTCCCGGTAATCCGTATTTGCG (site CAAGCAGCTTG) | 1.68
32 | CAAGCAGCATGGACCGGTTTTCCCGGTAATCCGTATTTGCT (site AAAGCAGCTAG) | 0
33 | CAAGCAGCATGGACCGGTTTTCCCGGTAATCCGTATTTGCT (site CAAACAGCTAG) | 0.972
34 | CAAGCAGCATGGACCGGTTTTCCCGGTAATCCGTATTTGCT (site CAACCAGCTAG) | 0
35 | CAAGCAGCATGGACCGGTTTTCCCGGTAATCCGTATTTGCT (site CAAGAAGCTAG) | 0.892
36 | CAAGCAGCATGGACCGGTTTTCCCGGTAATCCGTATTTGCT (site CAAGCAACTAG) | 1.47
37 | CAAGCAGCATGGACCGGTTTTCCCGGTAATCCGTATTTGCT (site CAAGCACCTAG) | 0
38 | CAAGCAGCATGGACCGGTTTTCCCGGTAATCCGTATTTGCT (site CAAGCAGCTAA) | 0.285
39 | CAAGCAGCATGGACCGGTTTTCCCGGTAATCCGTATTTGCT (site CAAGCAGCTAC) | 0.0274
40 | CAAGCAGCATGGACCGGTTTTCCCGGTAATCCGTATTTGCT (site CAAGCAGCTAG) | 1.84
41 | CAAGCAGCATGGACCGGTTTTCCCGGTAATCCGTATTTGCT (site CAAGCAGCTAT) | 2.19
42 | CAAGCAGCATGGACCGGTTTTCCCGGTAATCCGTATTTGCT (site CAAGCAGCTCG) | 0.839
43 | CAAGCAGCATGGACCGGTTTTCCCGGTAATCCGTATTTGCT (site CAAGCAGCTGG) | 1.4
44 | CAAGCAGCATGGACCGGTTTTCCCGGTAATCCGTATTTGCT (site CAAGCAGCTTG) | 1.3
45 | CAAGCAGCATGGACCGGTTTTCCCGGTAATCCGTATTTGCT (site CAAGCATCTAG) | 0.937
46 | CAAGCAGCATGGACCGGTTTTCCCGGTAATCCGTATTTGCT (site CAAGCCGCTAG) | 0.0579
47 | CAAGCAGCATGGACCGGTTTTCCCGGTAATCCGTATTTGCT (site CAAGCGGCTAG) | 0.638
48 | CAAGCAGCATGGACCGGTTTTCCCGGTAATCCGTATTTGCT (site CAAGCTGCTAG) | 0.0658
49 | CAAGCAGCATGGACCGGTTTTCCCGGTAATCCGTATTTGCT (site CAAGGAGCTAG) | 0
50 | CAAGCAGCATGGACCGGTTTTCCCGGTAATCCGTATTTGCT (site CAAGTAGCTAG) | 0

Row | Sequence | recombinant UMI read abundance (log10)
51 | CAAGCAGCATGGACCGGTTTTCCCGGTAATCCGTATTTGCT (site CAATCAGCTAG) | 0
52 | CAAGCAGCATGGACCGGTTTTCCCGGTAATCCGTATTTGCT (site CACGCAGCTAG) | 0.416
53 | CAAGCAGCATGGACCGGTTTTCCCGGTAATCCGTATTTGCT (site CAGGCAGCTAG) | 0.00336
54 | CAAGCAGCATGGACCGGTTTTCCCGGTAATCCGTATTTGCT (site CATGCAGCTAG) | 0.0527
55 | CAAGCAGCATGGACCGGTTTTCCCGGTAATCCGTATTTGCT (site CCAGCAGCTAG) | 0.00438
56 | CAAGCAGCATGGACCGGTTTTCCCGGTAATCCGTATTTGCT (site CGAGCAGCTAG) | 0.00425
57 | CAAGCAGCATGGACCGGTTTTCCCGGTAATCCGTATTTGCT (site CTAGCAGCTAG) | 0.616
58 | CAAGCAGCATGGACCGGTTTTCCCGGTAATCCGTATTTGCT (site GAAGCAGCTAG) | 0.0166
59 | CAAGCAGCATGGACCGGTTTTCCCGGTAATCCGTATTTGCT (site TAAGCAGCTAG) | 0.00331
60 | CAAGCAGCATGGACCGGTTTTCCCGGTAATCCGTATTTGTT (site CAAGCAGCTAA) | 1.83
61 | CAAGCAGCATGGACCGGTTTTCCCGGTAATCCGTATTTGTT (site CAAGCAGCTAC) | 0.0209
62 | CAAGCAGCATGGACCGGTTTTCCCGGTAATCCGTATTTGTT (site CAAGCAGCTAG) | 2.47
63 | CAAGCAGCATGGACCGGTTTTCCCGGTAATCCGTATTTGTT (site CAAGCAGCTAT) | 1.65
64 | CAAGCCCCATGGACCGGTTTTCCCGGTAATCCGTATTTGTG (site CAAGCACCTCA) | 0.0304
65 | CAAGCCCCATGGACCGGTTTTCCCGGTAATCCGTATTTGTG (site CAAGCCCCTCA) | 0.0397
66 | CAAGCCCCATGGACCGGTTTTCCCGGTAATCCGTATTTGTG (site CAAGCGCCTCA) | 0.0132
67 | CAAGCCCCATGGACCGGTTTTCCCGGTAATCCGTATTTGTG (site CAAGCTCCTCA) | 0.0205
68 | CAAGCGCCATGGACCGGTTTTCCCGGTAATCCGTATTTGAG (site CAAGCGCCTCA) | 0.0151
69 | CAAGCGCCATGGACCGGTTTTCCCGGTAATCCGTATTTGAG (site CAAGCGCCTCC) | 0.0109
70 | CAAGCGCCATGGACCGGTTTTCCCGGTAATCCGTATTTGAG (site CAAGCGCCTCG) | 0.0182
71 | CAAGCGCCATGGACCGGTTTTCCCGGTAATCCGTATTTGAG (site CAAGCGCCTCT) | 0.322
72 | CAAGCGCCATGGACCGGTTTTCCCGGTAATCCGTATTTGTA (site CAAGCGCCTAA) | 0.239
73 | CAAGCGCCATGGACCGGTTTTCCCGGTAATCCGTATTTGTA (site CAAGCGCCTCA) | 0.173
74 | CAAGCGCCATGGACCGGTTTTCCCGGTAATCCGTATTTGTA (site CAAGCGCCTGA) | 1.01
75 | CAAGCGCCATGGACCGGTTTTCCCGGTAATCCGTATTTGTA (site CAAGCGCCTTA) | 1.49
